Bridge positions count the residues as written; N and C are the ends. Square brackets hold non-standard residues; d marks the D form. Peptide text beside a SMILES is read from it. I, II: the chains in the order shown. * marks the point of attachment. DOTA = O=C(O)CN1CCN(CC(=O)O)CCN(CC(=O)*)CCN(CC(=O)O)CC1; Nle = CCCC[C@H](N)C(=O)O; Dap = NC[C@H](N)C(=O)O

The target of test [1] is T1, NPY Y1 receptor (Homo sapiens, UniProt P25929).
T1 construct: SK-N-MC cells endogenously expressing Y1; host or cells: SK-N-MC
T1 sequence (P25929 1-384): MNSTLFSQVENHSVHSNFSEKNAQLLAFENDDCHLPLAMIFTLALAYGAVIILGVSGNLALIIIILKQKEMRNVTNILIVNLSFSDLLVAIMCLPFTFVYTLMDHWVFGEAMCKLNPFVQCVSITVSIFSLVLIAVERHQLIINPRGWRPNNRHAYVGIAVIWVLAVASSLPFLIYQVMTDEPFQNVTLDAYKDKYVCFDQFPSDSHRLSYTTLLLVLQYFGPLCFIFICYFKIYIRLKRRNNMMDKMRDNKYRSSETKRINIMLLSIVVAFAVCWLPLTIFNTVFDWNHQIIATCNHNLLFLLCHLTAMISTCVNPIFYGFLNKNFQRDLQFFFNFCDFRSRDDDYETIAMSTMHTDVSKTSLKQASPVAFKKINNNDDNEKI
Description: Receptor autoradiography competition binding (125I-hPYY) on SK-N-MC cell membrane pellet sections. The following applies: for Y1 binding affinity in words (displacement of 125I-hPYY): SK-N-MC cell membrane pellet sections; for IC50: SK-N-MC membrane pellets, 125I-hPYY displacement, mean ± SEM, n ≥ 3, read-out: Binding affinity Y1 (IC50). On the procedure:
(§1) The neuroepithelioma cell line SK-N-MC endogenously expressing the NPY Y1 receptor was obtained from ATCC (HTB-10; LGC Standards, Teddington, Middlesex, UK) and cultured at 37°C and 5% CO2 in MEM with GlutaMax I and supplemented with 10% FBS, 100 U/ml penicillin and 100 μg/ml streptomycin, 1 mM MEM sodium pyruvate, and MEM non-essential amino acids (× 1). The neuroblastoma cell line SH-SY5Y endogenously expressing the NPY Y2 receptor, kindly provided by Dr. Paolo Paganetti (Novartis, Basel, Switzerland), was cultured at 37°C and 5% CO2 in MEM/Ham's F12 with GlutaMax I and supplemented with 10% FBS, 100 U/ml penicillin and 100 μg/ml streptomycin, 1 mM MEM sodium pyruvate, and MEM non-essential amino acids (× 1). All culture reagents were from Gibco BRL, Life Technologies, (Grand Island, NY, USA).
(§2) Binding affinities of the compounds were assessed using sections of cell membrane pellets of SK-N-MC for Y1 or SH-SY5Y for Y2, as described before. Briefly, membrane pellets were prepared and stored at -80°C, and receptor autoradiography was performed on 20-μm-thick cryostat (Microm HM 500, Walldorf, Germany) sections of the membrane pellets, mounted on microscope slides and stored at -20°C as previously described for other cell lines and receptors. The slides were preincubated in Krebs-Ringer solution (NaCl 119 mM, KCl 3.2 mM, KH2PO4 1.19 mM, MgSO4 1.19 mM, NaHCO3 25 mM, CaCl2 2.53 mM, D-glucose 10 mM; pH 7.4) for 60 min at room temperature. Then, they were incubated for 120 min in the incubation solution containing the Krebs-Ringer solution, 0.1% BSA, 0.05% bacitracin, and 10,000 cpm/100 μl of the ^125I-labeled human PYY (hPYY; 2,000 Ci/mmol; Anawa, Wangen, Switzerland). Membrane pellet sections were incubated with ^125I-hPYY in increasing concentrations ranging from 0.1 nM up to 1,000 nM of non-labeled hPYY, as control, or with the compounds to be tested. After the incubation, the slides were washed two times for 5 min and then rinsed four times in ice-cold preincubation solution. After drying, the slides were exposed to Kodak films Biomax MR® for 7 days. IC50 values were calculated after quantification of the data using a computer-assisted image processing system (Analysis Imaging System, Interfocus, Mering, Germany). Tissue standards (autoradiographic [^125I] and/or [^14C] microscales, GE Healthcare, Little Chalfont, UK) containing a known amount of isotope, cross-calibrated to tissue-equivalent ligand concentrations were used for quantification.
A general note: Loss of bound radioactivity is the signal in a displacement assay; it reports binding, not function.

The target of test [2] is T1, NPY Y1 receptor. Description: Forskolin-stimulated adenylate cyclase activity (cAMP flashplate assay) in SK-N-MC cells. The test is classed as cell-based. The following applies: 10 μM forskolin; for Functional assay cAMP for Y1: analog 20 μM alone or with 100 nM [Leu31,Pro34]-hPYY. On the procedure: Adenylate cyclase activity was determined in SK-N-MC cells using the adenylate cyclase activation flashplate assay (SMP004) from PerkinElmer (Waltham, MA, USA). SK-N-MC cells were seeded in 96-well culture plates at 25,000 cells/well and cultured for 48 h at 37°C and 5% CO2. Culture medium was then removed from the wells and fresh medium (100 μL) containing 0.5 mM 3-isobutyl-1-methylxanthine (IBMX) was added to each well. Cells were incubated for 30 min at 37°C. Medium was then removed and replaced with fresh medium containing 0.5 mM IBMX, with or without 10 μM forskolin and various concentrations of the peptides to be analyzed. Cells were incubated for 30 min at 37°C. After removal of the medium, cells were lysed and cAMP accumulation was determined using the SMP004 kit from PerkinElmer according to the instructions of the manufacturers.
Figure 4 Effect of various Y1 affine analogs on forskolin-stimulated intracellular cAMP accumulation in SK-N-MC cells. Cells were incubated for 30 min with 10 μM forskolin either alone, or with 10 μM forskolin in the presence of 20 μM or 100 nM of the reference compound [Leu^31, Pro^34]-PYY (LP-PYY), or with 10 μM forskolin in the presence of the various Y1 affine analogs either alone at a concentration of 20 μM or at a concentration of 20 μM in the presence of 100 nM LP-PYY. Intracellular cAMP accumulation was then determined as described in Methods. Results are shown as percentage of the 10 μM forskolin effect on intracellular cAMP accumulation.
Cells were incubated for 30 min with 10 μM forskolin in the presence of [Leu^31, Pro^34]-PYY (LP-PYY) at concentrations ranging between 0.01 nM and 20 μM alone (solid circle) or with 10 μM forskolin in the presence of LP-PYY at concentrations ranging between 0.01 nM and 20 μM supplemented with a fixed concentration of 20 μM of the analog 11 (solid square). […] Compound 11 given alone at a concentration of 20 μM has no effect on the accumulation of forskolin-stimulated cAMP (solid triangle).

For another test, the target named is T2, NPY Y2 receptor (Homo sapiens, UniProt P49146).
T2 construct: SH-SY5Y cells endogenously expressing Y2; endogenous in cells; host or cells: SH-SY5Y
T2 sequence (P49146 1-381): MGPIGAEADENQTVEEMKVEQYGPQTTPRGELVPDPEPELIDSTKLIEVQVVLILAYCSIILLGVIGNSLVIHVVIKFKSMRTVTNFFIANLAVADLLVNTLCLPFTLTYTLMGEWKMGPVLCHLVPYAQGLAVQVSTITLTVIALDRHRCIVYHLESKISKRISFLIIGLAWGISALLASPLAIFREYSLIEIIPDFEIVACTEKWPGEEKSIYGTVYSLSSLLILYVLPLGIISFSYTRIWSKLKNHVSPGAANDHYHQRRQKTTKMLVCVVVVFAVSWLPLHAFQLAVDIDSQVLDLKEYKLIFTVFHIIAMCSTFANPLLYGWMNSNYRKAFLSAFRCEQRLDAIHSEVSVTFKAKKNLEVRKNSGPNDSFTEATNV
Description: Receptor autoradiography competition binding (125I-hPYY) on SH-SY5Y cell membrane pellet sections. The following applies: SH-SY5Y membrane pellets, 125I-hPYY displacement; n ≥ 3; read-out: Binding affinity Y2 (IC50). On the procedure: as §1, §2

Another test deals with Y5. Also on record: method as in PMID 12182951. The following applies: rats, in vivo; cited from earlier work.

For orientation: IC50 means the concentration at which inhibition is half-maximal. As to `CCCC[C@H](NC(=O)[C@H](CCCNC(=N)N)NC(=O)[C@H](Cc1c[nH]c2ccccc12)NC(=O)[C@H](CSSC[C@H](NC(=O)[C@@H]1CCCN1C(=O)[C@H](CCCCNC(=O)CN1CCN(CC(=O)O)CCN(CC(=O)O)CCN(CC(=O)O)CC1)NC(=O)[C@@H](N)[C@@H](C)CC)C(=O)N[C@@H](Cc1c[nH]c2ccccc12)C(=O)N[C@@H](CCCNC(=N)N)C(=O)N[C@@H](CCCC)C(=O)N[C@@H](CCCNC(=N)N)C(=O)N[C@@H](Cc1ccc(O)cc1)C(N)=O)NC(=O)[C@@H]1CCCN1C(=O)[C@H](CCCCNC(=O)CN1CCN(CC(=O)O)CCN(CC(=O)O)CCN(CC(=O)O)CC1)NC(=O)[C@@H](N)[C@@H](C)CC)C(=O)N[C@@H](CCCNC(=N)N)C(=O)N[C@@H](Cc1ccc(O)cc1)C(N)=O` [Analog 10] (I: H-IK(DOTA)PCWR[Nle]RY-NH2 / II: H-IK(DOTA)PCWR[Nle]RY-NH2; disulfide I:4-II:4), the “Y1 binding affinity in words (displacement of 125I-hPYY)” value at NPY Y1 receptor [1] was “lower affinity displacements of ^125I-hPYY”. Also, the concentration for half-maximal inhibition (IC50) on NPY Y1 receptor [1] is 283 ± 52 nM; on NPY Y2 receptor, more than 1000 nM. Besides, the “Functional assay cAMP for Y1” value at NPY Y1 receptor [2] was “Antagonist”.

As to “Bis(31/31')[Cys^31, Nva^34]NPY(27-36)-NH2”, in the test with Y5, the “Stimulation of food intake” value is listed as “able to stimulate in vivo the food intake in rats”.

As for `CCCC[C@H](NC(=O)[C@H](CCCNC(=N)N)NC(=O)[C@H](Cc1c[nH]c2ccccc12)NC(=O)[C@H](CSSC[C@H](NC(=O)[C@@H]1CCCN1C(=O)[C@H](CC(N)=O)NC(=O)[C@@H](N)[C@@H](C)CC)C(=O)N[C@@H](Cc1c[nH]c2ccccc12)C(=O)N[C@@H](CCCNC(=N)N)C(=O)N[C@@H](CCCC)C(=O)N[C@@H](CCCNC(=N)N)C(=O)N[C@@H](Cc1ccc(O)cc1)C(N)=O)NC(=O)[C@@H]1CCCN1C(=O)[C@H](CCCCNC(=O)CN1CCN(CC(=O)O)CCN(CC(=O)O)CCN(CC(=O)O)CC1)NC(=O)[C@@H](N)[C@@H](C)CC)C(=O)N[C@@H](CCCNC(=N)N)C(=O)N[C@@H](Cc1ccc(O)cc1)C(N)=O` [Analog 11] (I: H-IK(DOTA)PCWR[Nle]RY-NH2 / II: H-INPCWR[Nle]RY-NH2; disulfide I:4-II:4), at NPY Y1 receptor [1], the “Y1 binding affinity in words (displacement of 125I-hPYY)” value is on record as “high-affinity displacements of ^125I-hPYY” and the concentration for half-maximal inhibition (IC50) stood at 13 ± 3 nM. Also, on NPY Y1 receptor [2] (20 μM analog with increasing concentration of [Leu31,Pro34]-hPYY up to 20 μM), the “Shift of the dose response curve of [Leu31,Pro34]-hPYY to the right” value is reported as “at least three orders of magnitude”. Further, the “Functional assay cAMP for Y1” value at NPY Y1 receptor [2] is reported as “Antagonist”. Besides, the “Inhibition of forskolin-stimulated cAMP accumulation, analog given alone” value at NPY Y1 receptor [2] (analog alone at 20 μM) is given as “has no effect”. On NPY Y2 receptor, the IC50 is more than 1000 nM.

For “[Leu^31, Pro^34]-hPYY [reference compound]”, on NPY Y1 receptor [2] (agonist at 20 μM and 100 nM), the “Inhibition of forskolin-stimulated cAMP accumulation by agonist” value is on record as “efficiently inhibited forskolin-stimulated cAMP accumulation”.

`CCCC[C@H](NC(=O)[C@H](CCCNC(=N)N)NC(=O)[C@H](Cc1c[nH]c2ccccc12)NC(=O)[C@H](CSSC[C@H](NC(=O)[C@@H]1CCCN1C(=O)[C@H](CNC(=O)CN1CCN(CC(=O)O)CCN(CC(=O)O)CCN(CC(=O)O)CC1)NC(=O)[C@@H](N)[C@@H](C)CC)C(=O)N[C@@H](Cc1c[nH]c2ccccc12)C(=O)N[C@@H](CCCNC(=N)N)C(=O)N[C@@H](CCCC)C(=O)N[C@@H](CCCNC(=N)N)C(=O)N[C@@H](Cc1ccc(O)cc1)C(N)=O)NC(=O)[C@@H]1CCCN1C(=O)[C@H](CNC(=O)CN1CCN(CC(=O)O)CCN(CC(=O)O)CCN(CC(=O)O)CC1)NC(=O)[C@@H](N)[C@@H](C)CC)C(=O)N[C@@H](CCCNC(=N)N)C(=O)N[C@@H](Cc1ccc(O)cc1)C(N)=O` [Analog 6] (I: H-I[Dap](DOTA)PCWR[Nle]RY-NH2 / II: H-I[Dap](DOTA)PCWR[Nle]RY-NH2; disulfide I:4-II:4): the half-inhibitory concentration (IC50) on NPY Y1 receptor [1] and on NPY Y2 receptor was more than 1000 nM in each case.

On to `CCCC[C@H](NC(=O)[C@H](CCCNC(=N)N)NC(=O)[C@H](Cc1c[nH]c2ccccc12)NC(=O)[C@H](CSSC[C@H](NC(=O)[C@@H]1CCCN1C(=O)[C@H](CN)NC(=O)[C@@H](N)[C@@H](C)CC)C(=O)N[C@@H](Cc1c[nH]c2ccccc12)C(=O)N[C@@H](CCCNC(=N)N)C(=O)N[C@@H](CCCC)C(=O)N[C@@H](CCCNC(=N)N)C(=O)N[C@@H](Cc1ccc(O)cc1)C(N)=O)NC(=O)[C@@H]1CCCN1C(=O)[C@H](CN)NC(=O)[C@@H](N)[C@@H](C)CC)C(=O)N[C@@H](CCCNC(=N)N)C(=O)N[C@@H](Cc1ccc(O)cc1)C(N)=O` [Analog 5] (I: H-I[Dap]PCWR[Nle]RY-NH2 / II: H-I[Dap]PCWR[Nle]RY-NH2; disulfide I:4-II:4), for which the IC50 on NPY Y1 receptor [1] was 143 ± 20 nM; on NPY Y2 receptor, more than 1000 nM.
